Values quoted from earlier work as cited in publication PMC11577316, “Tuning the Properties of Rigidified Acyclic DEDPA^2– Derivatives for Application in PET Using Copper-64” (Inorganic Chemistry, 2024).
Read-outs that look alike come from different tables or passages of the source. Marks after values point to notes of the source that are not given here.

Assays:
[1] = not given; remark: listed apart in the source
[2] = design: method as in PMID 22583103; conditions: vs Ag/AgCl ref 28
[3] = not given; remark: listed apart in the source

In the case of `O=C(O)c1cccc(CNCCNCc2cccc(C(=O)O)n2)n1` [DEDPA^2–, 6,6′-((ethane-1,2-diylbis(azanediyl))bis(methylene))dipicolinic acid], the “log K1^H” value (0.1 M (Me4N)(NO3) ref 25) is given as 8.69, the “log K2^H” value (0.1 M (Me4N)(NO3) ref 25) is given as 6.18 and the “log K3^H” value (0.1 M (Me4N)(NO3) ref 25) is given as 3.08. The “log K4^H” value (0.1 M (Me4N)(NO3) ref 25) was 2.33, the “log K1^H” value (0.15 M NaCl ref 26) was 9.00 and the “log K2^H” value (0.15 M NaCl ref 26) was 6.30. For the same compound, the “log K3^H” value (0.15 M NaCl ref 26) was 3.06, the “log K4^H” value (0.15 M NaCl ref 26) was 2.59 and the “log KCuL” value ([1]; Cu(II) complex, 0.15 M NaCl ref 28) was 19.16 ^d. The pCu ([1]; –log [Cu(II)]free, [L]tot = 10 μM, [Cu(II)]tot = 1 μM, column footnote c: 0.15 M NaCl ref 26) was 18.5.

For `O=C([O-])c1cccc(CNCCNCc2cccc(C(=O)[O-])n2)n1.[Cu+2]` [[Cu(DEDPA)]], the irreversible reduction peak [2] is listed as −1.12 V.

For `O=C([O-])c1cccc(CNCCNCc2cccc(C(=O)[O-])n2)n1.[64Cu+2]` [[^64Cu(DEDPA)]], the stability in serum [3] is listed as “poor stability in serum”.
